# Laboratory results from ChEMBL document CHEMBL4340507, “Identification of an indol-based multi-target kinase inhibitor through phenotype screening and target fishing using inverse virtual screening approach” (Eur J Med Chem, 2019).
# Active and inactive are the calls of the source. The rule behind the calls is not given here.
# Columns and labels:
# [1] = target: Proto-oncogene tyrosine-protein kinase Src (Homo sapiens, UniProt P12931); test: Inhibition of recombinant human full-length N-terminal GST-His6-fused SRC (M1 to L536 residues) expressed in Sf9 insect cells using Poly(Glu:Tyr)4:1 as substrate measured after 60 mins in presence of [gamma-33P]-ATP by scintillation counting method
# [2] = target: Epidermal growth factor receptor (Homo sapiens, UniProt P00533); test: Inhibition of recombinant human wild-type N-terminal GST-His6-fused EGFR C-terminal domain (H672 to A1210) expressed in Sf9 insect cells using Poly(Glu:Tyr)4:1 as substrate measured after 60 mins in presence of [gamma-33P]-ATP by scintillation counting method
# [3] = target: Dual specificity protein kinase CLK1 (Homo sapiens, UniProt P49759); test: Inhibition of recombinant human full-length N-terminal GST-His6-fused CLK1 (M1 to I484 residues) expressed in Sf9 cells using RS-peptide as substrate measured after 60 mins in presence of [gamma-33P]-ATP by scintillation counting method
# [4] = target: Mitogen-activated protein kinase kinase kinase 10 (Homo sapiens, UniProt Q02779); test: Inhibition of recombinant human MAP3K10 measured after 60 mins in presence of [gamma-33P]-ATP by scintillation counting method
# [5] = target: T1, RAC-beta serine/threonine-protein kinase (Homo sapiens, UniProt P31751); test: Inhibition of recombinant human N-terminal GST-His6-fused AKT2 C-terminal domain (A107 to E481 residues) expressed in Sf9 insect cells using GSK3(14-27)tide as substrate measured after 60 mins in presence of [gamma-33P]-ATP by scintillation counting method
# [6] = target: Platelet-derived growth factor receptor alpha (Homo sapiens, UniProt P16234); test: Inhibition of recombinant human wild-type N-terminal GST-His6-fused PDGFR-alpha C-terminal domain (Q551 to L1089 residues) expressed in Sf9 insect cells using TRK-C derived peptide as substrate measured after 60 mins in presence of [gamma-33P]-ATP by scintillation counting method
# [7] = target: Mitogen-activated protein kinase 3 (Homo sapiens, UniProt P27361); test: Inhibition of recombinant human full-length N-terminal GST-His6 fused ERK1 (M1 to P379 residues) expressed in Escherichia coli using RBER-CHKtide as substrate measured after 60 mins in presence of [gamma-33P]-ATP by scintillation counting method
# [8] = target: Dual specificity mitogen-activated protein kinase kinase 2 (Homo sapiens, UniProt P36507); test: Inhibition of recombinant human MEK2 measured after 60 mins in presence of [gamma-33P]-ATP by scintillation counting method
# [9] = target: Serine/threonine-protein kinase Chk2 (Homo sapiens, UniProt O96017); test: Inhibition of recombinant human CHK2 measured after 60 mins in presence of [gamma-33P]-ATP by scintillation counting method
# Wee1-like protein kinase = Wee1-like protein kinase (Homo sapiens, UniProt P30291); test: Inhibition of recombinant human N-terminal GST-His6-fused WEE1 C-terminal domain (Q36 to Y432 residues) expressed in Sf9 cells using Poly(Ala,Glu,Lys,Tyr)6:2:5:1 as substrate measured after 60 mins in presence of [gamma-33P]-ATP by scintillation counting method
# [10] = target: Platelet-derived growth factor receptor beta (Homo sapiens, UniProt P09619); test: Inhibition of recombinant human N-terminal GST-His6-fused PDGFR-beta C-terminal domain (R561 to L1106 residues) expressed in Sf9 insect cells using Poly(Ala,Glu,Lys,Tyr)6:2:5:1 as substrate measured after 60 mins in presence of [gamma-33P]-ATP by scintillation counting method
# [11] = target: Mitogen-activated protein kinase 14 (Homo sapiens, UniProt Q16539); test: Inhibition of recombinant human full-length untagged p38-alpha (M1 to S360 residues) expressed in Escherichia coli cells using recombinant ATF2 as substrate measured after 60 mins in presence of [gamma-33P]-ATP by scintillation counting method
# [12] = target: Mitogen-activated protein kinase kinase kinase 9 (Homo sapiens, UniProt P80192); test: Inhibition of recombinant human MAP3K9 measured after 60 mins in presence of [gamma-33P]-ATP by scintillation counting method
# [13] = target: Dual specificity mitogen-activated protein kinase kinase 1 (Homo sapiens, UniProt Q02750); test: Inhibition of recombinant human wild-type full-length MEK1 (M1 to V393 residues) expressed in Sf9 insect cells using ERK2-K54R as substrate measured after 60 mins in presence of [gamma-33P]-ATP by scintillation counting method
# [14] = target: T1, RAC-beta serine/threonine-protein kinase; test: Inhibition of recombinant human full-length N-terminal GST-His6-fused AKT2 (M1 to E481 residues) expressed in Sf9 insect cells using GSK3-derived peptide as substrate measured after 60 mins in presence of [gamma-33P]-ATP by scintillation counting method
# Focal adhesion kinase 1 = Focal adhesion kinase 1 (Homo sapiens, UniProt Q05397); test: Inhibition of recombinant human N-terminal GST-fused FAK (2 to 1052 residues) expressed in Sf9 insect cells using Poly(Glu/Tyr)4:1 as substrate measured after 60 mins in presence of [gamma-33P]-ATP by scintillation counting method
# IEC-6 [15] = test: Induction of apoptosis in rat IEC-6 cells assessed as increase in hypodiploid nuclei at 0.1 to 0.6 uM measured after 24 hrs by propidium iodide staining-based FACS analysis; assay type: cell-based; conditions: iec-6, 24 h
# IEC-6 [16] = test: Cell cycle arrest in rat IEC-6 cells assessed as increase in accumulation at S phase at 0.1 to 0.6 uM after 24 hrs by propidium iodide staining based FACS analysis; assay type: ADME; conditions: iec-6, 24 h
# HeLa [17] = test: Cell cycle arrest in human HeLa cells assessed as accumulation at G0/G1-phase at 0.1 to 0.6 uM after 24 hrs by propidium iodide staining-based FACS analysis; assay type: functional
# HeLa [18] = test: Cell cycle arrest in human HeLa cells assessed as decrease in accumulation at G2-phase at 0.1 to 0.6 uM after 24 hrs by propidium iodide staining-based FACS analysis; assay type: functional
# IEC-6 [19] = test: Cell cycle arrest in rat IEC-6 cells assessed as decrease in accumulation at G2-phase at 0.1 to 0.6 uM after 24 hrs by propidium iodide staining-based FACS analysis; assay type: ADME; conditions: iec-6, 24 h
# IEC-6 [20] = test: Down regulation of ERK expression in rat IEC-6 cells at 0.1 to 0.6 uM after 24 hrs by FACS analysis; assay type: ADME, cell-based; conditions: iec-6, 24 h
# [21] = Inhibition of ERK phosphorylation in rat IEC-6 cells at 0.1 to 0.6 uM after 24 hrs by FACS analysis; assay type: cell-based; conditions: iec-6, 24 h
# IEC-6 [22] = test: Induction of apoptosis in rat IEC-6 cells assessed as effect on PARP level at 0.1 to 0.6 uM after 24 hrs by FACS analysis; assay type: cell-based; conditions: iec-6, 24 h
# [23] = target: Vascular endothelial growth factor receptor 3 (Homo sapiens, UniProt P35916); test: Inhibition of recombinant human N-terminal GST-His6 fused VEGFR3 C-terminal domain (N799 to R1298 residues) expressed in baculovirus infected Sf9 insect cells using Poly(Glu:Tyr)4:1 as substrate measured after 60 mins in presence of [gamma-33P]-ATP by scintillation counting method
# Vascular endothelial growth factor receptor 3, sequence (P35916 whole entry, the tested form may be a part): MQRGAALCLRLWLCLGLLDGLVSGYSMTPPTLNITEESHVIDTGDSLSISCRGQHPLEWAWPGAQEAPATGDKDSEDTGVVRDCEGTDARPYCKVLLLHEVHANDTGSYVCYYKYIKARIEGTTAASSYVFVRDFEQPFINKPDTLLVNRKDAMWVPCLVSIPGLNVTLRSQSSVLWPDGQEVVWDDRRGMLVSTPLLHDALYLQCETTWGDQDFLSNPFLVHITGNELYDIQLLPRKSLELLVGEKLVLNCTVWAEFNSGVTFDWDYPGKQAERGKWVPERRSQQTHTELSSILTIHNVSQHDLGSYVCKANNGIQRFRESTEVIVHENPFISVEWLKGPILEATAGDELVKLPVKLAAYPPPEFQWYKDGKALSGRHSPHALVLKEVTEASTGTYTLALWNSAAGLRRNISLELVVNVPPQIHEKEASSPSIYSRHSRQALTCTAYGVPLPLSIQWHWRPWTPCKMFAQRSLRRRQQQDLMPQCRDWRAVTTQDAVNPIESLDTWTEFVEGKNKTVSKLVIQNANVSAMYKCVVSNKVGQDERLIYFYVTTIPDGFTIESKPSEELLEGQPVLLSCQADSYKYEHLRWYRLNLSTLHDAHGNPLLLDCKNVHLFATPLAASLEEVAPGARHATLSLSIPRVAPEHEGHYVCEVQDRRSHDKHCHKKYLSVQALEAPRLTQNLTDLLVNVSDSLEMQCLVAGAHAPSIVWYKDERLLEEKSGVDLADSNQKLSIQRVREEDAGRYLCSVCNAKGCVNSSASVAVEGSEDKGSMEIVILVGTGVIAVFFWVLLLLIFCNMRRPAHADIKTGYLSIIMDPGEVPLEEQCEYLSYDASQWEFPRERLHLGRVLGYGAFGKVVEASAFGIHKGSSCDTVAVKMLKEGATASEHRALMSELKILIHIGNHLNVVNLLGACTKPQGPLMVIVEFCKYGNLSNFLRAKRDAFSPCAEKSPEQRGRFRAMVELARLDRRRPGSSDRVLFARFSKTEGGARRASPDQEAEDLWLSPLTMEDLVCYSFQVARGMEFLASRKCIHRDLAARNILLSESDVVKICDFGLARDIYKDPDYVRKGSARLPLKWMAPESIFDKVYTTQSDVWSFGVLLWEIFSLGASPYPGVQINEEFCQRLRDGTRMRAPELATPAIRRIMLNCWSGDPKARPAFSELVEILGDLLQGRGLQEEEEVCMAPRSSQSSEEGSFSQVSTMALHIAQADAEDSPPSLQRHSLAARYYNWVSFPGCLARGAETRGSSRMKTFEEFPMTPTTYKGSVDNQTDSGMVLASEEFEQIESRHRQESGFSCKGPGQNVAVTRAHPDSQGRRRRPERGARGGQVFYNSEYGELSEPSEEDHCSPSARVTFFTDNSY
# T1 sequence (P31751 whole entry, the tested form may be a part): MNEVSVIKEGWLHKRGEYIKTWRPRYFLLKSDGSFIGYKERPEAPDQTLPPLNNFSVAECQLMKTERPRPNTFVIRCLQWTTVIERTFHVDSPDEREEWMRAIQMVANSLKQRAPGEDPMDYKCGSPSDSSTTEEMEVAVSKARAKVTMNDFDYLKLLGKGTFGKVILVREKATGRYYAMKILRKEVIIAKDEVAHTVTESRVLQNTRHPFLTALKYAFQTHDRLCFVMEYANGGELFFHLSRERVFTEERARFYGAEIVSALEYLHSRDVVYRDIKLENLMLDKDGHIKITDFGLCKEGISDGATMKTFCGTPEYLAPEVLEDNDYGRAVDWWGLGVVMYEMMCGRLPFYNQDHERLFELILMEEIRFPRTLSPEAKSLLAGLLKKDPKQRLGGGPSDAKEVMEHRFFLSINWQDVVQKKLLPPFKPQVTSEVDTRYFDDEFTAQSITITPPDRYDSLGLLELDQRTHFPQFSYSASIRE
# Dual specificity protein kinase CLK1, sequence (P49759 whole entry, the tested form may be a part): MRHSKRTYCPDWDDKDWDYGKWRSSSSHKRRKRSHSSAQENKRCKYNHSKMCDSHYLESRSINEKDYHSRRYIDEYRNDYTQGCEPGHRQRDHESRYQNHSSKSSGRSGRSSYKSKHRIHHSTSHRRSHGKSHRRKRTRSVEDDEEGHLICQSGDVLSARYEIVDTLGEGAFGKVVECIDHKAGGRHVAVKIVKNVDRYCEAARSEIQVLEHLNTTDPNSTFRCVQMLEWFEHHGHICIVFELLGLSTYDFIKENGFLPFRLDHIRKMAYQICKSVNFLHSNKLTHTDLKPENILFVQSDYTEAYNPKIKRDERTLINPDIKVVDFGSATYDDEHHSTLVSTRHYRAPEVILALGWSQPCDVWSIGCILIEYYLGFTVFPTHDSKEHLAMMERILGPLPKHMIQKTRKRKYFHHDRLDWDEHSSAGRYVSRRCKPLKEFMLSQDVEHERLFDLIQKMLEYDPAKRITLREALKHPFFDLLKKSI
# Proto-oncogene tyrosine-protein kinase Src, sequence (P12931 2-536 limits assumed): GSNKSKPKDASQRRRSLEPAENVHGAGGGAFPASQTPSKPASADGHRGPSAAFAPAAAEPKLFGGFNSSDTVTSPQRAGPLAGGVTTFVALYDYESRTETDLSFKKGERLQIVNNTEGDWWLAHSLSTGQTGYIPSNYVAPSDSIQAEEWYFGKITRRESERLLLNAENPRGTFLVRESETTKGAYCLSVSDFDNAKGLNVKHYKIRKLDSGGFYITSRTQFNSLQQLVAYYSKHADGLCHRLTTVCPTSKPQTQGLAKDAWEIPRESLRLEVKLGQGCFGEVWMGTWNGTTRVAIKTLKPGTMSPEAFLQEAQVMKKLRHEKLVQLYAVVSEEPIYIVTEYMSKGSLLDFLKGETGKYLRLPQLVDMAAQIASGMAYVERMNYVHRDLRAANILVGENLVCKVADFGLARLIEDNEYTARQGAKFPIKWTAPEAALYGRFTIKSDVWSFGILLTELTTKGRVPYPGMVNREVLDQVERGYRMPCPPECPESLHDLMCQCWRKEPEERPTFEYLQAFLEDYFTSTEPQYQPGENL
# Epidermal growth factor receptor, sequence (P00533 whole entry, the tested form may be a part): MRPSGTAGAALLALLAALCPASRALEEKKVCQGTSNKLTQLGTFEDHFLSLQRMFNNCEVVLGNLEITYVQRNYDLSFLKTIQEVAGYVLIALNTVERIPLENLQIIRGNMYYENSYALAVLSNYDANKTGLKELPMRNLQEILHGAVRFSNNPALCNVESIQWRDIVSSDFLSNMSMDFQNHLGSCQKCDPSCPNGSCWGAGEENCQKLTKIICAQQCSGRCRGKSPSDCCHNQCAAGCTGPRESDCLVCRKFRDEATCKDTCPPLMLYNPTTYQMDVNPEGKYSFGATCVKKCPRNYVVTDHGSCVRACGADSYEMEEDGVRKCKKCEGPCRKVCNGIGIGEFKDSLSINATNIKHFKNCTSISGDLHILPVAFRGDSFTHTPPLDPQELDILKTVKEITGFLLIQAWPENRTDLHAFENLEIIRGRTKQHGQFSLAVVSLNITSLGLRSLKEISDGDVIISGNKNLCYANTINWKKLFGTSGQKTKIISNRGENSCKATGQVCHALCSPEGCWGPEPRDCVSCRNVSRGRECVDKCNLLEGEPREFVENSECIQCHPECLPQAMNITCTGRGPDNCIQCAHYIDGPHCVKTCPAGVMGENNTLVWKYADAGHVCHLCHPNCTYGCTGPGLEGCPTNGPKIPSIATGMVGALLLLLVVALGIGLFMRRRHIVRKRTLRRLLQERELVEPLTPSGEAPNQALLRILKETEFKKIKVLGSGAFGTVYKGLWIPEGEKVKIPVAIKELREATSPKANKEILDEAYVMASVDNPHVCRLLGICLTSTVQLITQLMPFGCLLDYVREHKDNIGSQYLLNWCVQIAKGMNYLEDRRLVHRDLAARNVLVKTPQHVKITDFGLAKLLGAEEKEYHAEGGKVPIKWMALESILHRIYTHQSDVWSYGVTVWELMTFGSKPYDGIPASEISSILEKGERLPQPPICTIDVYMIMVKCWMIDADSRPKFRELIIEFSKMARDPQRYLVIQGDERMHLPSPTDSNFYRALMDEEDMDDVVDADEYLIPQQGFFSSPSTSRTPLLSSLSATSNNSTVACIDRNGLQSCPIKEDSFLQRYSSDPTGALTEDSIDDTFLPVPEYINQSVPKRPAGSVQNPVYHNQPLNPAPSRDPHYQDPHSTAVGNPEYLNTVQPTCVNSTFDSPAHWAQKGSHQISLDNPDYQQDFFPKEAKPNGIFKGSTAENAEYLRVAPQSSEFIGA
# Wee1-like protein kinase, sequence (P30291 whole entry, the tested form may be a part): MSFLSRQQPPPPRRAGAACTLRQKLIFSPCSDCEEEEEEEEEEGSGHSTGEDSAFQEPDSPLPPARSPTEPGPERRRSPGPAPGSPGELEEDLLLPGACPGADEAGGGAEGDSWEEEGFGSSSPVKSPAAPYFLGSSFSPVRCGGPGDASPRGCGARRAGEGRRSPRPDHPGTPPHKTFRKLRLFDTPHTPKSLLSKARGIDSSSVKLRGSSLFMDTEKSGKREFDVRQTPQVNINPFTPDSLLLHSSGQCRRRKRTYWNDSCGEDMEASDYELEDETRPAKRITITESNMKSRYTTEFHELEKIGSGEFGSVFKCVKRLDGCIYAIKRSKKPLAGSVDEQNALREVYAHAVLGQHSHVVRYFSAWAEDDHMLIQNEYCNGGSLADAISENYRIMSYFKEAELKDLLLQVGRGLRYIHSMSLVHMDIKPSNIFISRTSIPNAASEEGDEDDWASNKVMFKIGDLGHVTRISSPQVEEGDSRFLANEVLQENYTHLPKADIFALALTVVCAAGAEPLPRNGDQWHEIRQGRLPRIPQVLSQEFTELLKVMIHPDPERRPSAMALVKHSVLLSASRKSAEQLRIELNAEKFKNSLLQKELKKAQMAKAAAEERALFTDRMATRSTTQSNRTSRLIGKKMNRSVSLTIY
compound,measurement,setting,value
CN(CCc1ccc(-c2ccccc2)cc1)Cc1cn(C)c2ccc(C(=O)Nc3ccc(F)cc3)cc12,IC50,[1],8.8 µM
same,IC50,[2],10 µM
same,IC50,[3],13 µM
same,IC50,[4],18 µM
same,IC50,[5],21 µM
same,IC50,[6],48 µM
same,IC50,[7],65 µM
same,IC50,[8],74 µM
same,IC50,[9],79 µM
same,IC50,Wee1-like protein kinase,79 µM
same,IC50,[10],81 µM
same,IC50,[11],88 µM
same,IC50,[12],100 µM
same,IC50,[13],> 100 µM
same,IC50,[14],> 100 µM
same,IC50,Focal adhesion kinase 1,> 100 µM
same,Activity,IEC-6 [15],Toxic
same,Activity,IEC-6 [16],Toxic
same,Activity,HeLa [17],Active
same,Activity,HeLa [18],Active
same,Activity,IEC-6 [19],Toxic
same,Activity,IEC-6 [20],Non-Toxic
same,inhibition (INH),[21],Not Active
same,Activity,IEC-6 [22],Non-Toxic
same,IC50,[23],> 100 µM
